Results published in PubChem BioAssay AID330 (DTP/NCI, 2004).
Several values for one entry are separate records, joined by “and”; a condition that tells them apart may be missing. Equal entries are not always repeated. Toxic doses and inconclusive results are not listed. How the source made its calls: active means survival T/C of 150% or more; inactive means T/C below 125% in these data.

System: P388 leukemia ip, CD2F1 mice, survival T/C
Experiment: NCI In Vivo Anticancer Drug Screen. Data for tumor model P388 Leukemia (intraperitoneal) in CD2F1 (CDF1) mice
Settings: endpoint: median survival time, higher = longer survival
In short: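 Mice carrying the transplanted tumor received test compound or vehicle. Survival was recorded in each group, and the value is the treated-group measurement divided by that of the vehicle-treated control group.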

[1] = dose: 50.0 mg/kg/injection, schedule: Q01DX005 (ip), vehicle: saline with Tween-80
[2] = dose: 100.0 mg/kg/injection, schedule: Q01DX005 (ip), vehicle: saline with Tween-80
[3] = dose: 200.0 mg/kg/injection, schedule: Q01DX005 (ip), vehicle: saline with Tween-80
[4] = dose: 60.0 mg/kg/injection, schedule: Q01DX005 (ip), vehicle: saline with Tween-80
[5] = dose: 120.0 mg/kg/injection, schedule: Q01DX005 (ip), vehicle: saline with Tween-80
[6] = dose: 240.0 mg/kg/injection, schedule: Q01DX005 (ip), vehicle: saline with Tween-80
[7] = dose: 12.5 mg/kg/injection, schedule: Q01DX009 (ip), vehicle: saline
[8] = dose: 25.0 mg/kg/injection, schedule: Q01DX009 (ip), vehicle: saline
[9] = dose: 25.0 mg/kg/injection, schedule: Q01DX009 (ip), vehicle: saline with Tween-80
[10] = dose: 50.0 mg/kg/injection, schedule: Q01DX009 (ip), vehicle: saline with Tween-80
[11] = dose: 50.0 mg/kg/injection, schedule: Q01DX005 (ip), vehicle: Klucel (hydroxypropylcellulose) (HPC)
[12] = dose: 100.0 mg/kg/injection, schedule: Q01DX005 (ip), vehicle: Klucel (hydroxypropylcellulose) (HPC)
[13] = dose: 200.0 mg/kg/injection, schedule: Q01DX005 (ip), vehicle: Klucel (hydroxypropylcellulose) (HPC)
[14] = dose: 6.25 mg/kg/injection, schedule: Q01DX009 (ip), vehicle: saline
[15] = dose: 12.5 mg/kg/injection, schedule: Q01DX009 (ip), vehicle: saline with Tween-80
[16] = dose: 50.0 mg/kg/injection, schedule: Q01DX009 (ip), vehicle: saline
[17] = dose: 60.0 mg/kg/injection, schedule: Q01DX005 (ip), vehicle: Klucel (hydroxypropylcellulose) (HPC)
[18] = dose: 120.0 mg/kg/injection, schedule: Q01DX005 (ip), vehicle: Klucel (hydroxypropylcellulose) (HPC)
[19] = dose: 240.0 mg/kg/injection, schedule: Q01DX005 (ip), vehicle: Klucel (hydroxypropylcellulose) (HPC)
[20] = dose: 12.5 mg/kg/injection, schedule: Q01DX009 (ip), vehicle: Klucel (hydroxypropylcellulose) (HPC)
[21] = dose: 25.0 mg/kg/injection, schedule: Q01DX009 (ip), vehicle: Klucel (hydroxypropylcellulose) (HPC)
[22] = dose: 3.12 mg/kg/injection, schedule: Q01DX005 (ip), vehicle: saline with Tween-80
[23] = dose: 6.25 mg/kg/injection, schedule: Q01DX005 (ip), vehicle: saline with Tween-80
[24] = dose: 100.0 mg/kg/injection, schedule: Q01DX009 (ip), vehicle: saline
[25] = dose: 200.0 mg/kg/injection, schedule: Q01DX009 (ip), vehicle: saline
[26] = dose: 100.0 mg/kg/injection, schedule: Q01DX009 (ip), vehicle: saline with Tween-80
[27] = dose: 200.0 mg/kg/injection, schedule: Q01DX009 (ip), vehicle: saline with Tween-80

Measured: T/C

COc1cc(/C=N/NC(=O)C(N)Cc2ccc(O)cc2)ccc1O (stereo not drawn)
inactive: [1] 100 % of control | [2] 94 % of control | [3] 103 % of control

CCOC(=O)C(CC(C)C)NC(=O)c1cnc2ccccc2c1 (stereo not drawn)
inactive: [4] 104 % of control | [5] 103 % of control | [6] 99 % of control

C1CC2CC3CCCCN3COC2C1 (stereo not drawn)
inactive: dose: 100.0 mg/kg/injection, schedule: Q04DX003 (ip), vehicle: saline 102 % of control | dose: 200.0 mg/kg/injection, schedule: Q04DX003 (ip), vehicle: saline 118 % of control

COc1cc(CC2COC(O)C2(O)Cc2ccc(O)c(OC)c2)ccc1O (stereo not drawn)
inactive: dose: 8.25 mg/kg/injection, schedule: Q01DX005 (ip), vehicle: Klucel (hydroxypropylcellulose) (HPC) 101 % of control | dose: 16.5 mg/kg/injection, schedule: Q01DX005 (ip), vehicle: Klucel (hydroxypropylcellulose) (HPC) 101 % of control | dose: 33.0 mg/kg/injection, schedule: Q01DX005 (ip), vehicle: Klucel (hydroxypropylcellulose) (HPC) 106 % of control | dose: 66.0 mg/kg/injection, schedule: Q01DX005 (ip), vehicle: Klucel (hydroxypropylcellulose) (HPC) 92 % of control

c1cc(C2N3CCCN2CC3)ccn1 (stereo not drawn)
inactive: dose: 3.12 mg/kg/injection, schedule: Q01DX009 (ip), vehicle: saline 104 % of control | [7] 103 % of control | [8] 110 % of control

O=C(O)c1n[nH]c2ccccc2c1=O
inactive: dose: 1.56 mg/kg/injection, schedule: Q01DX009 (ip), vehicle: other 101 % of control | dose: 3.13 mg/kg/injection, schedule: Q01DX009 (ip), vehicle: other 105 % of control | dose: 6.25 mg/kg/injection, schedule: Q01DX009 (ip), vehicle: other 97 % of control | dose: 12.5 mg/kg/injection, schedule: Q01DX009 (ip), vehicle: other 109 % of control | dose: 25.0 mg/kg/injection, schedule: Q01DX009 (ip), vehicle: other 110 % of control and 90 % of control

COC(=O)/C=C/c1c(=O)c(C(=O)OC)cn2cnc3nc[nH]c3c12
inactive: dose: 100.0 mg/kg/injection, schedule: Q04DX003 (ip), vehicle: saline with Tween-80 97 % of control | dose: 200.0 mg/kg/injection, schedule: Q04DX003 (ip), vehicle: saline with Tween-80 93 % of control | dose: 400.0 mg/kg/injection, schedule: Q04DX003 (ip), vehicle: saline with Tween-80 98 % of control

CN1CCC(=C(C#N)C#N)CC1
inactive: [9] 120 % of control | [10] 115 % of control

c1ncn(Sn2cncn2)n1
inactive: dose: 8.75 mg/kg/injection, schedule: Q01DX005 (ip), vehicle: Klucel (hydroxypropylcellulose) (HPC) 100 % of control | dose: 17.5 mg/kg/injection, schedule: Q01DX005 (ip), vehicle: Klucel (hydroxypropylcellulose) (HPC) 101 % of control | dose: 35.0 mg/kg/injection, schedule: Q01DX005 (ip), vehicle: Klucel (hydroxypropylcellulose) (HPC) 104 % of control

NCC(=O)NC(CSC(c1ccccc1)c1ccccc1)C(=O)NCC(=O)O (stereo not drawn)
inactive: [11] 102 % of control | [12] 103 % of control | [13] 96 % of control

COC(=O)c1[nH]c(=O)c(C#N)c(C(=O)OC)c1-c1ccc(F)cc1
inactive: [4] 100 % of control | [5] 92 % of control | [6] 95 % of control

O=C(C[n+]1ccc2ccccc2c1)c1ccccc1
inactive: [14] 111 % of control | [15] 113 % of control | [7] 108 % of control | [9] 104 % of control | [8] 98 % of control | [10] 104 % of control | [16] 110 % of control

O=C1NNCc2c1oc1ccccc21
inactive: dose: 6.25 mg/kg/injection, schedule: Q01DX009 (ip), vehicle: saline with Tween-80 95 % of control | [15] 92 % of control | [9] 99 % of control

NC(=O)c1cc2c(oc1=O)-c1ccccc1N(C=O)C2
inactive: [4] 100 % of control | [5] 95 % of control | [6] 95 % of control

CC(=O)[C-](Cl)C(C)=O.CC(=O)[C-](Cl)C(C)=O.CC(=O)[C-](Cl)C(C)=O.[Ru+3]
inactive: [4] 111 % of control | [5] 109 % of control | [6] 98 % of control

CCCCCC(=O)O[C@H]1CC[C@@H]2[C@H]1[C@@H]1CC[C@H]3O[C@]31C2(C)C
inactive: [17] 111 % of control | [18] 111 % of control | [19] 121 % of control

CC1=CN(C(=O)c2ccccc2)C(C#N)N(C(=O)c2ccccc2)C1C#N (stereo not drawn)
inactive: [17] 100 % of control | [18] 103 % of control | [19] 102 % of control

CCOC(=O)/C(C(=N)c1nc(C)c(C(=O)OCC)c(C(N)=O)n1)=C(/C)O
inactive: [11] 113 % of control | [12] 102 % of control and 90 % of control | [13] 90 % of control and 94 % of control

N#C/C(=C/c1ccco1)c1ccccc1
inactive: [20] 95 % of control | [21] 88 % of control

O=C1Nc2ccc(Br)cc2/C1=c1/sc2nc3ccccc3n2c1=O
inactive: dose: 1.56 mg/kg/injection, schedule: Q01DX005 (ip), vehicle: saline with Tween-80 100 % of control | [22] 98 % of control | [23] 100 % of control | [11] 87 % of control | [12] 94 % of control

S=C(Nc1ccc(Cl)c(Cl)c1)SC1CCCCC1
inactive: [8] 107 % of control | [16] 91 % of control | dose: 50.0 mg/kg/injection, schedule: Q01DX009 (ip), vehicle: suspension in saline 105 % of control | [24] 100 % of control | dose: 100.0 mg/kg/injection, schedule: Q01DX009 (ip), vehicle: suspension in saline 115 % of control | [25] 123 % of control | dose: 200.0 mg/kg/injection, schedule: Q01DX009 (ip), vehicle: suspension in saline 120 % of control

NC(=NCCCC(NC(=O)c1ccccc1)C(=O)O)NC(=O)c1ccccc1 (stereo not drawn)
inactive: [9] 108 % of control and 91 % of control | [10] 100 % of control and 90 % of control | [26] 93 % of control and 96 % of control | [27] 86 % of control and 97 % of control

C[N+](C)(C)C.[CH-]1CCCCC1.[CH-]1CCCCC1.[CH-]1CCCCC1.[Cl-].[Cl-].[Sn+4]
inactive: [22] 108 % of control | [23] 101 % of control

Nc1nc2ncc(CNc3ccc(C(=O)NC(CCC(=O)O)C(=O)O)cc3)nc2c(=O)[nH]1 (stereo not drawn)
inactive: [14] 103 % of control | [7] 99 % of control and 98 % of control | [8] 99 % of control and 96 % of control | dose: 45.0 mg/kg/injection, schedule: Q04DX003 (ip), vehicle: saline 103 % of control | [10] 108 % of control | [16] 101 % of control and 103 % of control | dose: 90.0 mg/kg/injection, schedule: Q04DX003 (ip), vehicle: saline 61 % of control | [24] 98 % of control | dose: 180.0 mg/kg/injection, schedule: Q04DX003 (ip), vehicle: saline 40 % of control

Cc1ccc(S(=O)(=O)N(C)C=O)cc1
inactive: [10] 100 % of control | [26] 103 % of control | [27] 101 % of control

O=C(Nc1ccc(OCC2=NCCN2)cc1)c1ccc(C(=O)Nc2ccc(OCC3=NCCN3)cc2)cc1
inactive: [1] 108 % of control | [2] 103 % of control | [3] 105 % of control

CSC(=S)NNC1=NCCCCC1
inactive: dose: 50.0 mg/kg/injection, schedule: Q01DX009 (ip), vehicle: Klucel (hydroxypropylcellulose) (HPC) 106 % of control | dose: 100.0 mg/kg/injection, schedule: Q01DX009 (ip), vehicle: Klucel (hydroxypropylcellulose) (HPC) 97 % of control | dose: 200.0 mg/kg/injection, schedule: Q01DX009 (ip), vehicle: Klucel (hydroxypropylcellulose) (HPC) 87 % of control

CC(=O)NC(C=O)C(O)C(O)C(O)C(=O)O (stereo not drawn) (tested in a mixture with another compound)
inactive: dose: 6.25 mg/kg/injection, schedule: Q01DX009 (ip), vehicle: Klucel (hydroxypropylcellulose) (HPC) 101 % of control | [20] 94 % of control | [21] 92 % of control

O=C(O)CC(NC(=O)CCl)c1cccs1 (stereo not drawn)
inactive: [16] 97 % of control | [24] 94 % of control | [25] 98 % of control
